Measurements taken from ChEMBL document CHEMBL5375948, “Development and Pharmacochemical Characterization Discover a Novel Brain-Permeable HDAC11-Selective Inhibitor with Therapeutic Potential by Regulating Neuroinflammation in Mice” (J Med Chem, 2023).

Assays:
[1] = molecular target: Histone deacetylase 1 (Homo sapiens, UniProt Q13547); experiment: Inhibition of recombinant full-length human HDAC1 using FITC-H3K27(Ac)-NH2 as substrate by electrophoretic mobility shift assay
[2] = molecular target: Histone deacetylase 2 (Homo sapiens, UniProt Q92769); experiment: Inhibition of recombinant full-length human HDAC2 using FITC-H3K27(Ac)-NH2 as substrate by electrophoretic mobility shift assay
Histone deacetylase 2, sequence (Q92769 whole entry): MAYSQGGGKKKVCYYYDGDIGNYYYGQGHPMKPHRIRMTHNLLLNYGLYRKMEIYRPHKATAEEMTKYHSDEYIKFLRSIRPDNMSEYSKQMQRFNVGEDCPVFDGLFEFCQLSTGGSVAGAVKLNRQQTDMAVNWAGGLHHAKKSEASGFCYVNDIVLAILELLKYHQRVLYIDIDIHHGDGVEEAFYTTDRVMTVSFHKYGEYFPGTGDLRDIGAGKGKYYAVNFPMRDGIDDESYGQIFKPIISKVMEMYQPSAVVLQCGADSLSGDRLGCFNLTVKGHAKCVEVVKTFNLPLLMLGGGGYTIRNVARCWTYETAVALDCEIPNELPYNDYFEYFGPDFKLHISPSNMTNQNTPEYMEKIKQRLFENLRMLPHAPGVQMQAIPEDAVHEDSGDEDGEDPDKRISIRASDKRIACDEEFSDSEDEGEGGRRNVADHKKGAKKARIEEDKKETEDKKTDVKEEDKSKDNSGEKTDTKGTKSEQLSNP

[3] = molecular target: Histone deacetylase 5 (Homo sapiens, UniProt Q9UQL6); experiment: Inhibition of recombinant full-length human HDAC5 using FAM-RHKK (trifluor-Ac)-NH2 as substrate by electrophoretic mobility shift assay
Histone deacetylase 5, sequence (Q9UQL6 whole entry): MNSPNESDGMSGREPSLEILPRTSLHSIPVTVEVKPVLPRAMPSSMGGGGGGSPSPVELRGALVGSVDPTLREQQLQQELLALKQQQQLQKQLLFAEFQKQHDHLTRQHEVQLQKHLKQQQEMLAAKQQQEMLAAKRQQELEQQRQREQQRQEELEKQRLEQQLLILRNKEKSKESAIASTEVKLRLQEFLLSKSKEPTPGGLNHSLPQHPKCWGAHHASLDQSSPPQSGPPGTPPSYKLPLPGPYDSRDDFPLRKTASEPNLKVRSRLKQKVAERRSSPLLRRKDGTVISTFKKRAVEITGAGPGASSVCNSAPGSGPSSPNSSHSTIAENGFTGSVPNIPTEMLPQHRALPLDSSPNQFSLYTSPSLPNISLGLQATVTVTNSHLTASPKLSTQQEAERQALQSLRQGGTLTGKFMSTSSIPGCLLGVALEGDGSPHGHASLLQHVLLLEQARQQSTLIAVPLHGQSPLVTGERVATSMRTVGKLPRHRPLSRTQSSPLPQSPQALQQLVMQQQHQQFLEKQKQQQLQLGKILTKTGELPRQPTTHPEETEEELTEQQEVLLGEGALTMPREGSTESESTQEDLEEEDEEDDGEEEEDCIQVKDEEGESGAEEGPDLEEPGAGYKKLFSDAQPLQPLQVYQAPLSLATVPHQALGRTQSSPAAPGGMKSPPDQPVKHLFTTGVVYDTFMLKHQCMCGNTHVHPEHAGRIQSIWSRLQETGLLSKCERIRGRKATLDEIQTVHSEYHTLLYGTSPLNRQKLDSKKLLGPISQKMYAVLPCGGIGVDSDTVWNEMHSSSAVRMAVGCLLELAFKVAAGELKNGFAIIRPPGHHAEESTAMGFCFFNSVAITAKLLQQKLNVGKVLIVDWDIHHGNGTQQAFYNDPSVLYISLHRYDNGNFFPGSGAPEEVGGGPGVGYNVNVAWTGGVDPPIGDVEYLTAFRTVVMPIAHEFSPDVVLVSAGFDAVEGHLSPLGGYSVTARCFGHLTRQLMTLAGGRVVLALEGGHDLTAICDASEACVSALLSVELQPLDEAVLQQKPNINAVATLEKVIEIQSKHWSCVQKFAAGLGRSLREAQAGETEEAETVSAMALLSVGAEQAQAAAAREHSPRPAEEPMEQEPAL

[4] = molecular target: T1, Polyamine deacetylase HDAC10 (Homo sapiens, UniProt Q969S8); experiment: Inhibition of recombinant full-length human HDAC10 using FITC-H3K27(Ac)-NH2 as substrate by electrophoretic mobility shift assay
T1 sequence (Q969S8 whole entry): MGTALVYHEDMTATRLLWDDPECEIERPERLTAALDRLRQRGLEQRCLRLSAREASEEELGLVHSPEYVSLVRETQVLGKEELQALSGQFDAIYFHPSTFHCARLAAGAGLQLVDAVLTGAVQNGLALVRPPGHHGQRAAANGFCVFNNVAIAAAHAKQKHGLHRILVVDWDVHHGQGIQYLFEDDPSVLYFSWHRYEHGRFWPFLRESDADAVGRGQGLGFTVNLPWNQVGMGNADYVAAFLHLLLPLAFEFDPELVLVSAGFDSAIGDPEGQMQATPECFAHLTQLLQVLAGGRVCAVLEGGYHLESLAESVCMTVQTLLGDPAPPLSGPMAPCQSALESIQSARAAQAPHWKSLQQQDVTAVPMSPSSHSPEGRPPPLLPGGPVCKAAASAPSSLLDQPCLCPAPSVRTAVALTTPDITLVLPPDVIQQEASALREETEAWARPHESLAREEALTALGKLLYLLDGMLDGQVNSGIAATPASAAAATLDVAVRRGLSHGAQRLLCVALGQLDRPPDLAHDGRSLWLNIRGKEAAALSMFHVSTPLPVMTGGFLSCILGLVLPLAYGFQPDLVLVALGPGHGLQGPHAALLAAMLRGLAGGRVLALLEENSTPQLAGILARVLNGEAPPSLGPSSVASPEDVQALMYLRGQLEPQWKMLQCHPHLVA

[5] = molecular target: Histone deacetylase 3 (Homo sapiens, UniProt O15379)
Histone deacetylase 3, sequence (O15379 whole entry): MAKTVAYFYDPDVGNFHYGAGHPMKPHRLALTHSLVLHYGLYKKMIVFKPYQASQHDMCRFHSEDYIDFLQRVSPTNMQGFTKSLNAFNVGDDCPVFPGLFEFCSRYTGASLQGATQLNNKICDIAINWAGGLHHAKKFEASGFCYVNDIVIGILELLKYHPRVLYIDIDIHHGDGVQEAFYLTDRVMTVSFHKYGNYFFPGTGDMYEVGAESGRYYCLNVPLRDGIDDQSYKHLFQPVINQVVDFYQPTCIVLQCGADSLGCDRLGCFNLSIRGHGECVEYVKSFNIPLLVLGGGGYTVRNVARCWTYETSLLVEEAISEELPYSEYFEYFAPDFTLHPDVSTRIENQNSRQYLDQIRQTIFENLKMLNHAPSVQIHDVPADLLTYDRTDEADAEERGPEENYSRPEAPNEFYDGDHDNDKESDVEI

[6] = molecular target: T2, Protein deacetylase HDAC6 (Homo sapiens, UniProt Q9UBN7); experiment: Inhibition of recombinant full-length human HDAC6 using FAM-RHKK(Ac)-NH2 as substrate by electrophoretic mobility shift assay
T2 sequence (Q9UBN7 whole entry): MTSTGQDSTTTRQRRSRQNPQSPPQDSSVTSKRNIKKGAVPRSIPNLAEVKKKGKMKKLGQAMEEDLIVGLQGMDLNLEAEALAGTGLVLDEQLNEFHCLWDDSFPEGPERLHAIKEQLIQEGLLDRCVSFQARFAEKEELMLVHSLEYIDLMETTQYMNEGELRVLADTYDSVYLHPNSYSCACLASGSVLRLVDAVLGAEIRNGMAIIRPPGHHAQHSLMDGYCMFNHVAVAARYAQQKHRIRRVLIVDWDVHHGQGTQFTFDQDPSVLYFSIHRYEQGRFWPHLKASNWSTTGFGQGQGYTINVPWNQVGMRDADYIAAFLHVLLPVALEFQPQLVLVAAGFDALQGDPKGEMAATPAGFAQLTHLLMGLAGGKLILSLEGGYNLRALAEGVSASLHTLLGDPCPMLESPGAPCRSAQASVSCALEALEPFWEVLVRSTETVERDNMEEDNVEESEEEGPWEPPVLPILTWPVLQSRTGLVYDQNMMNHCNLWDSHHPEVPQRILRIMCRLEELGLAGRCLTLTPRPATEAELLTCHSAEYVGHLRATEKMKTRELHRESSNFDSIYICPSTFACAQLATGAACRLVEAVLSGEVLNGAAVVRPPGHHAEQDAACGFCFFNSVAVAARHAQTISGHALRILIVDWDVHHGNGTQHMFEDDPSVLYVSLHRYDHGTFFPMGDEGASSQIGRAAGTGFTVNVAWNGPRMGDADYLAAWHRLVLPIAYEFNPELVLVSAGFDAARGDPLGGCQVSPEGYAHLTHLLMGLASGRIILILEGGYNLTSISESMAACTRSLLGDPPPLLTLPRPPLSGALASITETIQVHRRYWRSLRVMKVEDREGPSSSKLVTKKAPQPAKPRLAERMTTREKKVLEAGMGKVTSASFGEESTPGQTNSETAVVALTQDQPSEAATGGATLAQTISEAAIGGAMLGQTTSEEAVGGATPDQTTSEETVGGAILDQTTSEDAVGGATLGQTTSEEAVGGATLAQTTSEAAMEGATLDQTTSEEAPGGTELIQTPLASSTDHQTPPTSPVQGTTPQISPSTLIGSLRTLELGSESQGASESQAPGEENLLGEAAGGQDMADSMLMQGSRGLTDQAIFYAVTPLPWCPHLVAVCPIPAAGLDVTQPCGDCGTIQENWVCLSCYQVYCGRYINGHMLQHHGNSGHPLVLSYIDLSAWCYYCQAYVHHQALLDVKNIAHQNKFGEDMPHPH

[7] = molecular target: T3, Histone deacetylase 11 (Homo sapiens, UniProt Q96DB2); experiment: Inhibition of recombinant full-length human HDAC11 using FAM-RHKK (trifluor-Ac)-NH2 as substrate by electrophoretic mobility shift assay
T3 sequence (Q96DB2 whole entry): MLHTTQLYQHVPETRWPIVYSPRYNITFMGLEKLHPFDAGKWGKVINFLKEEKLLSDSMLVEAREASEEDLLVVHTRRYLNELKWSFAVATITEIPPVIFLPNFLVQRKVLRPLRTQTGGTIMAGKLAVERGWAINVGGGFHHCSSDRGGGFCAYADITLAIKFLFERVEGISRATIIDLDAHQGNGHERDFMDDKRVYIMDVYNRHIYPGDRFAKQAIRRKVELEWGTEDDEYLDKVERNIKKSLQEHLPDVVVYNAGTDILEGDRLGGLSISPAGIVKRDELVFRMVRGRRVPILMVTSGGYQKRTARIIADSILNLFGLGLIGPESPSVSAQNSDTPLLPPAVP

[8] = molecular target: Histone deacetylase 9 (Homo sapiens, UniProt Q9UKV0); experiment: Inhibition of recombinant full-length human HDAC9 using FAM-RHKK (trifluor-Ac)-NH2 as substrate by electrophoretic mobility shift assay
Histone deacetylase 9, sequence (Q9UKV0 whole entry): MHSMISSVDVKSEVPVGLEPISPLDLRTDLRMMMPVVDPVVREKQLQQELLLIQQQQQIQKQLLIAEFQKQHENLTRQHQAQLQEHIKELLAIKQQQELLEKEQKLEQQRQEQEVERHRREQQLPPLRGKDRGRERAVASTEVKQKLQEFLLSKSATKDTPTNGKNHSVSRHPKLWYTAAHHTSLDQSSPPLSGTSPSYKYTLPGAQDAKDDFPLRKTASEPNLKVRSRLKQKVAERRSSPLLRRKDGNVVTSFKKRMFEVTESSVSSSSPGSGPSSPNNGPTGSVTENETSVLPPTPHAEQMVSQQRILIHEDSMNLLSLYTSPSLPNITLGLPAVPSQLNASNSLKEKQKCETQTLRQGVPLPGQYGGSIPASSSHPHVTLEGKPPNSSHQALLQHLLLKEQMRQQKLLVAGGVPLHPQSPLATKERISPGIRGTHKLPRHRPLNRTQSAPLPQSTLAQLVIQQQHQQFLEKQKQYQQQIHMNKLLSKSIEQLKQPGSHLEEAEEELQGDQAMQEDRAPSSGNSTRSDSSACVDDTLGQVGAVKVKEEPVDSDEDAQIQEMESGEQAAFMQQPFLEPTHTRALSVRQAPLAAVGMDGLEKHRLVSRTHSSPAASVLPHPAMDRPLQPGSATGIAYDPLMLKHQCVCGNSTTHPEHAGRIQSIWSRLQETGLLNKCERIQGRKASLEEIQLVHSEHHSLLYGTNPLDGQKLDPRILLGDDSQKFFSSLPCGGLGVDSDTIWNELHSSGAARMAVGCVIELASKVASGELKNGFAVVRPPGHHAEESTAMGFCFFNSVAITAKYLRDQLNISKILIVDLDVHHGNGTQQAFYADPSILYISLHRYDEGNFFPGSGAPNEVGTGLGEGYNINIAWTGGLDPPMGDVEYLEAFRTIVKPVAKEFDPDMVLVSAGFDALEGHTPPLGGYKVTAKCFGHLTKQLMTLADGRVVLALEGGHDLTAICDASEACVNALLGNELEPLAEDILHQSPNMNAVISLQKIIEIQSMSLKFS

[9] = molecular target: T4, Histone deacetylase 8 (Homo sapiens, UniProt Q9BY41); experiment: Inhibition of recombinant full-length human HDAC8 using FAM-RHKK(Ac)-NH2 as substrate by electrophoretic mobility shift assay
T4 sequence (Q9BY41 whole entry): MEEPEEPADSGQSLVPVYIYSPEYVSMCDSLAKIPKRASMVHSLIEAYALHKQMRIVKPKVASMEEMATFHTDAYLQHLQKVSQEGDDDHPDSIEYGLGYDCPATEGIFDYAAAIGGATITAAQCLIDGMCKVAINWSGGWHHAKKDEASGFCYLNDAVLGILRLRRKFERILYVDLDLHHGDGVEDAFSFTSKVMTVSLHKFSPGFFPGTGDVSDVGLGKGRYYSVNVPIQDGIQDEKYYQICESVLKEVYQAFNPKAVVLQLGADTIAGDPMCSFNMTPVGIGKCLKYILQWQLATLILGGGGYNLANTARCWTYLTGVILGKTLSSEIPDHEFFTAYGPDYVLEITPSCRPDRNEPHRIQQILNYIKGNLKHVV

[10] = molecular target: Histone deacetylase 4 (Homo sapiens, UniProt P56524); experiment: Inhibition of recombinant full-length human HDAC4 using FAM-RHKK (trifluor-Ac)-NH2 as substrate by electrophoretic mobility shift assay
Histone deacetylase 4, sequence (P56524 whole entry): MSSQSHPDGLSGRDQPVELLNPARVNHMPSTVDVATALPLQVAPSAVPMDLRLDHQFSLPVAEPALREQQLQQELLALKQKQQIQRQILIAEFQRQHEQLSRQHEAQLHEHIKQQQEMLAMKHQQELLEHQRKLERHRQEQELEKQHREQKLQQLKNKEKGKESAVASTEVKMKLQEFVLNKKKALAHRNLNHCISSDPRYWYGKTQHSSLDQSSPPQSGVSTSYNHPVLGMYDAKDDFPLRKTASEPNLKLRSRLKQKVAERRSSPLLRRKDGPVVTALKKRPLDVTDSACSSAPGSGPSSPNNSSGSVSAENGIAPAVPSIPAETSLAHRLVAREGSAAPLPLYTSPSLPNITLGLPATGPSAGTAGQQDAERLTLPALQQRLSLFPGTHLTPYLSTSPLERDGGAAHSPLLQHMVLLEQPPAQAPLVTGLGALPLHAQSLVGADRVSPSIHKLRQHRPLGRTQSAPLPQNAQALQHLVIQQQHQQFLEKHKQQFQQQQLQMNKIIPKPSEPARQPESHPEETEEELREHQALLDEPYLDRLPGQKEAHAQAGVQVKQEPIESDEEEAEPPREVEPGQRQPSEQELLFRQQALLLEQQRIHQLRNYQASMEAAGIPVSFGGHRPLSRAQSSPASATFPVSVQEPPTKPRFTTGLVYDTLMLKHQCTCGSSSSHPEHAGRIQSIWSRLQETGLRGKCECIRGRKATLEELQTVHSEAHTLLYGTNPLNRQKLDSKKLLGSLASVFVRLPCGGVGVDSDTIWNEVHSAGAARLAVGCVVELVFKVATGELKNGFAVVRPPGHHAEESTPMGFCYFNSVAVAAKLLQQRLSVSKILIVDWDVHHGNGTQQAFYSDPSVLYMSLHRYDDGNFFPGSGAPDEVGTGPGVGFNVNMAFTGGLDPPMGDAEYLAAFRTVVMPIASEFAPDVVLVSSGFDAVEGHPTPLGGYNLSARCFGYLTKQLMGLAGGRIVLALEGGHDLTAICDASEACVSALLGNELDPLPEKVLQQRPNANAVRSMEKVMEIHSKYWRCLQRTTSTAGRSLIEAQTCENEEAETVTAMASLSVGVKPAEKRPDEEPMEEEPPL

[11] = molecular target: T5, Histone deacetylase 7 (Homo sapiens, UniProt Q8WUI4); experiment: Inhibition of recombinant full-length human HDAC7 using FAM-RHKK (trifluor-Ac)-NH2 as substrate by electrophoretic mobility shift assay
T5 sequence (Q8WUI4 whole entry): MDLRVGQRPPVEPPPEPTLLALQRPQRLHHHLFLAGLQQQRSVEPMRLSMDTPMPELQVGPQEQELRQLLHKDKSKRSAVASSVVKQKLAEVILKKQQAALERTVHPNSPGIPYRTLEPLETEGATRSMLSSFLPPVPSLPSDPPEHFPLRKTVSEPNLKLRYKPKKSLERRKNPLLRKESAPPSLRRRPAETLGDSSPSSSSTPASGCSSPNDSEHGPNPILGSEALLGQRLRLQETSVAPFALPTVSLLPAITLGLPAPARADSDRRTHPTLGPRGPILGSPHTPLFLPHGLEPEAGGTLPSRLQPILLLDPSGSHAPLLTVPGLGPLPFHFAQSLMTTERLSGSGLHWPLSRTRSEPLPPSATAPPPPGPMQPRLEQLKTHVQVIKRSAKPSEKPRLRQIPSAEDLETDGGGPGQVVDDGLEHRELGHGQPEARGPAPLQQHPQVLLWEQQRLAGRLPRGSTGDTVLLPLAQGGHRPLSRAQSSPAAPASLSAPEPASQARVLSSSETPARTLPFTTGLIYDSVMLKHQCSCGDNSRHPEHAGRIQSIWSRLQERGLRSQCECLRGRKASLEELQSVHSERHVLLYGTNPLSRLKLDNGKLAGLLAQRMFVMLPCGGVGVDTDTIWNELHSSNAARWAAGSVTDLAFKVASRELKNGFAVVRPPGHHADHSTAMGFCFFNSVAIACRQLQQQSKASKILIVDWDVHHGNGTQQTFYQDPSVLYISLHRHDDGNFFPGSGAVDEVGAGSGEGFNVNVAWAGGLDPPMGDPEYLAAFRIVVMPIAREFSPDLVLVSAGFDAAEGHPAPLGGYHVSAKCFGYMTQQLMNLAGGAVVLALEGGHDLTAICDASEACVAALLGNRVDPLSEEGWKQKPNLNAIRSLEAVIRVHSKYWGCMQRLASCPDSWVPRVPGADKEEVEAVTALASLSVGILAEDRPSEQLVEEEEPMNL

Histone deacetylase 1, sequence (Q13547 whole entry): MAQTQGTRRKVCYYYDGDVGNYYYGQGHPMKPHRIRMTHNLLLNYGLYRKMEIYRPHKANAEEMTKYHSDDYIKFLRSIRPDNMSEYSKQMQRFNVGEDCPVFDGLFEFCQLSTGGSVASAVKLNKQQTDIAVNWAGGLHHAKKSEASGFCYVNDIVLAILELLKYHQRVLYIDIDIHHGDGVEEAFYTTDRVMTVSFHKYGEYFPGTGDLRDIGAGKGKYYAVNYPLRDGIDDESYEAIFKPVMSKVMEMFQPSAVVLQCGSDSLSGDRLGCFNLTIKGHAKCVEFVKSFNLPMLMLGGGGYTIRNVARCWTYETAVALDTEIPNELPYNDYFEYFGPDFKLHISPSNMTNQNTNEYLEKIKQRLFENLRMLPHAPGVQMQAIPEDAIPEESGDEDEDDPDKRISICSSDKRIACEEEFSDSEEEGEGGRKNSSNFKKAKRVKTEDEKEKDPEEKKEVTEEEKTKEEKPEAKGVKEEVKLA

| Structure (SMILES) | IC50 [1] | IC50 [2] | IC50 [3] | IC50 [4] | IC50 [5] | IC50 [6] | IC50 [7] | IC50 [8] | IC50 [9] | IC50 [10] | IC50 [11] |
| --- | --- | --- | --- | --- | --- | --- | --- | --- | --- | --- | --- |
| O=C(NCC12C[C@H]3C[C@@H](C1)C[C@@H](C2)C3)c1ccc2c(ccn2Cc2ccc(C(=O)NO)c(O)c2)c1 | > 10 µM | > 10 µM | 7.25 µM | > 10 µM | 8.12 µM |  |  |  |  |  |  |
| COc1cc(CN(C)CC23CC4CC(CC(C4)C2)C3)ccc1C(=O)NO |  |  |  |  |  | > 10 µM | > 10 µM |  |  |  |  |
| O=C(NCC12C[C@H]3C[C@@H](C1)C[C@@H](C2)C3)c1ccc2c(ccn2Cc2ccc(C(=O)NO)c(Br)c2)c1 | 7.32 µM | > 10 µM |  | 8.97 µM | 2.23 µM |  |  | 9.31 µM |  |  |  |
| COc1cc(C(=O)NCC23CC4CC(CC(C4)C2)C3)ccc1C(=O)NO |  |  |  |  |  |  | 8.89 µM |  |  |  |  |
| O=C(NO)c1ccc(Cn2ccc3cc(C(=O)NCC45C[C@H]6C[C@@H](C4)C[C@@H](C5)C6)ccc32)c(F)c1 | 0.19 µM | 1.02 µM | > 10 µM | 0.23 µM | 0.69 µM | 0.008 µM |  | 2.09 µM |  | 1.12 µM |  |
| COc1cc(CN(C)CCC23CC4CC(CC(C4)C2)C3)ccc1C(=O)NO |  |  |  |  |  | > 10 µM | 4.21 µM |  |  |  |  |

More lines, in order of falling IC50 [7], values ahead:

| IC50 [1] | IC50 [2] | IC50 [3] | IC50 [4] | IC50 [5] | IC50 [6] | IC50 [7] | IC50 [8] | IC50 [9] | IC50 [10] | IC50 [11] | Structure (SMILES) |
| --- | --- | --- | --- | --- | --- | --- | --- | --- | --- | --- | --- |
|  |  |  |  |  |  | 2.61 µM |  |  |  |  | CCCNNC(=O)c1ccc(Cn2ccc3cc(C(=O)NCC45C[C@H]6C[C@@H](C4)C[C@@H](C5)C6)ccc32)cc1 |
| 0.88 µM | 1.9 µM | > 10 µM | > 10 µM | 0.98 µM |  | 0.48 µM | 5.25 µM | 1.95 µM | 1.09 µM |  | O=C(NO)c1ccc(Cn2ccc3cc(C(=O)NCC45C[C@H]6C[C@@H](C4)C[C@@H](C5)C6)ccc32)cc1 |
| > 10 µM | > 10 µM |  | > 10 µM | > 10 µM |  | 0.35 µM |  | 2.06 µM | > 10 µM |  | Cc1cc(Cn2ccc3cc(C(=O)NCC45C[C@H]6C[C@@H](C4)C[C@@H](C5)C6)ccc32)ccc1C(=O)NO |
| > 10 µM | > 10 µM |  | > 10 µM |  |  | 0.25 µM | > 10 µM | > 10 µM | > 10 µM | 4.03 µM | CCOc1cc(Cn2ccc3cc(C(=O)NCC45C[C@H]6C[C@@H](C4)C[C@@H](C5)C6)ccc32)ccc1C(=O)NO |
| > 10 µM | > 10 µM |  | 9.05 µM |  | 0.22 µM | 0.14 µM | 4.53 µM | 0.41 µM |  | 0.57 µM | O=C(NCC12C[C@H]3C[C@@H](C1)C[C@@H](C2)C3)c1ccc2c(ccn2Cc2ccc(C(=O)NO)c(Cl)c2)c1 |
| > 10 µM | > 10 µM | 1.88 µM | > 10 µM | 1.33 µM | 0.64 µM | 0.093 µM | 2.84 µM | 0.16 µM | 3.04 µM |  | COc1cc(C(=O)NO)ccc1Cn1ccc2cc(C(=O)NCC34C[C@H]5C[C@@H](C3)C[C@@H](C4)C5)ccc21 |
|  | 3.4 µM |  | 0.6 µM | 0.18 µM |  | 0.079 µM |  |  |  |  | O=C(NCC12C[C@H]3C[C@@H](C1)C[C@@H](C2)C3)c1ccc2c(ccn2Cc2ccc(C(=O)NO)c(F)c2)c1 |
